Among the data in ChEMBL document CHEMBL4049462, “Synthesis and Biological Evaluation of Novel Neuroprotective Pyridazine Derivatives as Excitatory Amino Acid Transporter 2 (EAAT2) Activators” (2017) are Time and Activity values, retold here.

What all share (format): functional
The subject of experiment [1] is Rattus norvegicus. Nature of the experiment: Antihypersensitivity in oxaliplatin-induced Sprague-Dawley rat thermal hyperalgesia model assessed as paw withdrawal latency time at 3 mg/kg, sc administered daily up to day 13 measured on day 14 post last dose by plantar test (reference value: 10.6 +/- 0.5 secs).
Experiment [2] deals with Rattus norvegicus. Nature of the experiment: Antiallodynic activity in oxaliplatin-induced Sprague-Dawley rat allodynia model assessed as increase in paw withdrawal latency time at 3 mg/kg, sc administered daily up to day 6 measured on day 7 post last dose by Von Frey test relative to control.
Experiment [3] deals with Rattus norvegicus. Nature of the experiment: Antiallodynic activity in oxaliplatin-induced Sprague-Dawley rat allodynia model assessed as paw withdrawal latency time at 3 mg/kg, sc administered daily up to day 13 measured on day 14 post last dose by cold plate test (reference value: 12 +/- 1.2 secs).
In experiment [4] the test system is Rattus norvegicus. Nature of the experiment: Antiallodynic activity in oxaliplatin-induced Sprague-Dawley rat allodynia model assessed as paw withdrawal latency time at 3 mg/kg, sc administered daily up to day 6 measured on day 7 post last dose by cold plate test (reference value: 14.3 +/- 0.3 secs).
In experiment [5] the test system is Rattus norvegicus. Nature of the experiment: Antihypersensitivity in oxaliplatin-induced Sprague-Dawley rat thermal hyperalgesia model assessed as paw withdrawal latency time at 3 mg/kg, sc administered daily up to day 6 measured on day 7 post last dose by plantar test (reference value: 9 +/- 1 secs).
For experiment [6], the system named is Rattus norvegicus. Nature of the experiment: Antihypersensitivity in oxaliplatin-induced Sprague-Dawley rat hyperalgesia model assessed as increase in weight tolerated on posterior paw at 3 mg/kg, sc administered daily for 14 days post oxaliplatin challenge measured on day 14 post last dose by analgesimeter relative to control.
Experiment [7] relates to Rattus norvegicus. Nature of the experiment: Antihypersensitivity in oxaliplatin-induced Sprague-Dawley rat hyperalgesia model assessed as increase in weight tolerated on posterior paw at 3 mg/kg, sc administered daily for 7 days post oxaliplatin challenge measured on day 7 post last dose by analgesimeter relative to control.
Experiment [8] relates to Rattus norvegicus. Nature of the experiment: Antiallodynic activity in oxaliplatin-induced Sprague-Dawley rat allodynia model assessed as increase in paw withdrawal latency time at 3 mg/kg, sc administered daily up to day 13 measured on day 14 post last dose by Von Frey test relative to control.
Experiment [9] deals with Rattus norvegicus. Nature of the experiment: Antihypersensitivity in oxaliplatin-induced Sprague-Dawley rat thermal hyperalgesia model assessed as paw withdrawal latency time at 3.43 mg/kg, sc administered daily up to day 13 measured on day 14 post last dose by plantar test (reference value: 10.6 +/- 0.5 secs).
Experiment [10] relates to Rattus norvegicus. Nature of the experiment: Antiallodynic activity in oxaliplatin-induced Sprague-Dawley rat allodynia model assessed as paw withdrawal latency time at 3.43 mg/kg, sc administered daily up to day 13 measured on day 14 post last dose by cold plate test (reference value: 12 +/- 1.2 secs).
For experiment [11], the system named is Rattus norvegicus. Nature of the experiment: Antiallodynic activity in oxaliplatin-induced Sprague-Dawley rat allodynia model assessed as paw withdrawal latency time at 3.43 mg/kg, sc administered daily up to day 6 measured on day 7 post last dose by cold plate test (reference value: 14.3 +/- 0.3 secs).
The subject of experiment [12] is Rattus norvegicus. Nature of the experiment: Antihypersensitivity in oxaliplatin-induced Sprague-Dawley rat hyperalgesia model assessed as weight tolerated on posterior paw at 3.43 mg/kg, sc administered daily for 7 days post oxaliplatin challenge measured on day 7 post last dose by analgesimeter (reference value: 46.1 +/- 0.5 g).
Experiment [13] concerns Rattus norvegicus. Nature of the experiment: Antihypersensitivity in oxaliplatin-induced Sprague-Dawley rat hyperalgesia model assessed as increase in weight tolerated on posterior paw at 3.43 mg/kg, sc administered daily up to day 13 measured on day 14 post last dose by analgesimeter relative to control.
Experiment [14] relates to Rattus norvegicus. Nature of the experiment: Antihypersensitivity in oxaliplatin-induced Sprague-Dawley rat thermal hyperalgesia model assessed as paw withdrawal latency time at 3.43 mg/kg, sc administered daily up to day 6 measured on day 7 post last dose by plantar test (reference value: 9 +/- 1 secs).
Experiment [15] has as its system Rattus norvegicus. Nature of the experiment: Antiallodynic activity in oxaliplatin-induced Sprague-Dawley rat allodynia model assessed as paw withdrawal latency time at 3.43 mg/kg, sc administered daily up to day 6 measured on day 7 post last dose by Von Frey test (reference value: 12.4 +/- 1.2 secs).
Experiment [16] has as its system Rattus norvegicus. Nature of the experiment: Antihypersensitivity in oxaliplatin-induced Sprague-Dawley rat hyperalgesia model assessed as increase in weight tolerated on posterior paw at 3.37 mg/kg, sc administered daily up to day 13 measured on day 14 post last dose by analgesimeter relative to control.
The subject of experiment [17] is Rattus norvegicus. Nature of the experiment: Antihypersensitivity in oxaliplatin-induced Sprague-Dawley rat thermal hyperalgesia model assessed as paw withdrawal latency time at 3.37 mg/kg, sc administered daily up to day 13 measured on day 14 post last dose by plantar test (reference value: 10.6 +/- 0.5 secs).
The test system of experiment [18] is Rattus norvegicus. Nature of the experiment: Antihypersensitivity in oxaliplatin-induced Sprague-Dawley rat thermal hyperalgesia model assessed as paw withdrawal latency time at 3.37 mg/kg, sc administered daily up to day 6 measured on day 7 post last dose by plantar test (reference value: 9 +/- 1 secs).
In experiment [19] the test system is Rattus norvegicus. Nature of the experiment: Antiallodynic activity in oxaliplatin-induced Sprague-Dawley rat allodynia model assessed as paw withdrawal latency time at 3.37 mg/kg, sc administered daily up to day 6 measured on day 7 post last dose by cold plate test (reference value: 14.3 +/- 0.3 secs).
The subject of experiment [20] is Rattus norvegicus. Nature of the experiment: Antiallodynic activity in oxaliplatin-induced Sprague-Dawley rat allodynia model assessed as increase in paw withdrawal latency time at 3.43 mg/kg, sc administered daily up to day 13 measured on day 14 post last dose by Von Frey test relative to control.
Experiment [21] deals with Rattus norvegicus. Nature of the experiment: Antiallodynic activity in oxaliplatin-induced Sprague-Dawley rat allodynia model assessed as paw withdrawal latency time at 3.37 mg/kg, sc administered daily up to day 13 measured on day 14 post last dose by cold plate test (reference value: 12 +/- 1.2 secs).
The test system of experiment [22] is Rattus norvegicus. Nature of the experiment: Antiallodynic activity in oxaliplatin-induced Sprague-Dawley rat allodynia model assessed as increase in paw withdrawal latency time at 3.37 mg/kg, sc administered daily up to day 13 measured on day 14 post last dose by Von Frey test relative to control.
Experiment [23] has as its system Rattus norvegicus. Nature of the experiment: Antiallodynic activity in oxaliplatin-induced Sprague-Dawley rat allodynia model assessed as paw withdrawal latency time at 3.37 mg/kg, sc administered daily up to day 6 measured on day 7 post last dose by Von Frey test (reference value: 12.4 +/- 1.2 secs).
Experiment [24] relates to Rattus norvegicus. Nature of the experiment: Antihypersensitivity in oxaliplatin-induced Sprague-Dawley rat hyperalgesia model assessed as weight tolerated on posterior paw at 3.37 mg/kg, sc administered daily for 7 days post oxaliplatin challenge measured on day 7 post last dose by analgesimeter (reference value: 46.1 +/- 0.5 g).
Experiment [25] has as its system Rattus norvegicus. Nature of the experiment: Antiallodynic activity in oxaliplatin-induced Sprague-Dawley rat allodynia model assessed as paw withdrawal latency time at 3.28 mg/kg, sc administered daily up to day 6 measured on day 7 post last dose by cold plate test (reference value: 14.3 +/- 0.3 secs).
The test system of experiment [26] is Rattus norvegicus. Nature of the experiment: Antiallodynic activity in oxaliplatin-induced Sprague-Dawley rat allodynia model assessed as paw withdrawal latency time at 3.28 mg/kg, sc administered daily up to day 13 measured on day 14 post last dose by Von Frey test (reference value: 11.6 +/- 0.5 secs).
In experiment [27] the test system is Rattus norvegicus. Nature of the experiment: Antihypersensitivity in oxaliplatin-induced Sprague-Dawley rat hyperalgesia model assessed as weight tolerated on posterior paw at 3.28 mg/kg, sc administered daily for 7 days post oxaliplatin challenge measured on day 7 post last dose by analgesimeter (reference value: 46.1 +/- 0.5 g).
For experiment [28], the system named is Rattus norvegicus. Nature of the experiment: Antiallodynic activity in oxaliplatin-induced Sprague-Dawley rat allodynia model assessed as paw withdrawal latency time at 3.28 mg/kg, sc administered daily up to day 13 measured on day 14 post last dose by cold plate test (reference value: 12 +/- 1.2 secs).
The subject of experiment [29] is Rattus norvegicus. Nature of the experiment: Antihypersensitivity in oxaliplatin-induced Sprague-Dawley rat thermal hyperalgesia model assessed as paw withdrawal latency time at 3.28 mg/kg, sc administered daily up to day 6 measured on day 7 post last dose by plantar test (reference value: 9 +/- 1 secs).
Experiment [30] relates to Rattus norvegicus. Nature of the experiment: Antihypersensitivity in oxaliplatin-induced Sprague-Dawley rat hyperalgesia model assessed as weight tolerated on posterior paw at 3.28 mg/kg, sc administered daily up to day 13 measured on day 14 post last dose by analgesimeter (reference value: 44.7 +/- 1.2 g).
The test system of experiment [31] is Rattus norvegicus. Nature of the experiment: Antiallodynic activity in oxaliplatin-induced Sprague-Dawley rat allodynia model assessed as increase in paw withdrawal latency time at 3.28 mg/kg, sc administered daily up to day 6 measured on day 7 post last dose by Von Frey test relative to control.
The subject of experiment [32] is Rattus norvegicus. Nature of the experiment: Antihypersensitivity in oxaliplatin-induced Sprague-Dawley rat thermal hyperalgesia model assessed as paw withdrawal latency time at 3.28 mg/kg, sc administered daily up to day 13 measured on day 14 post last dose by plantar test (reference value: 10.6 +/- 0.5 secs).
Experiment [33] deals with Rattus norvegicus. Nature of the experiment: Antihypersensitivity in oxaliplatin-induced Sprague-Dawley rat thermal hyperalgesia model assessed as paw withdrawal latency time at 3.42 mg/kg, sc administered daily up to day 13 measured on day 14 post last dose by plantar test (reference value: 10.6 +/- 0.5 secs).
Experiment [34] deals with Rattus norvegicus. Nature of the experiment: Antihypersensitivity in oxaliplatin-induced Sprague-Dawley rat hyperalgesia model assessed as weight tolerated on posterior paw at 3.42 mg/kg, sc administered daily for 7 days post oxaliplatin challenge measured on day 7 post last dose by analgesimeter (reference value: 46.1 +/- 0.5 g).
Experiment [35] has as its system Rattus norvegicus. Nature of the experiment: Antiallodynic activity in oxaliplatin-induced Sprague-Dawley rat allodynia model assessed as paw withdrawal latency time at 3.42 mg/kg, sc administered daily up to day 13 measured on day 14 post last dose by cold plate test (reference value: 12 +/- 1.2 secs).
The subject of experiment [36] is Rattus norvegicus. Nature of the experiment: Antiallodynic activity in oxaliplatin-induced Sprague-Dawley rat allodynia model assessed as paw withdrawal latency time at 3.42 mg/kg, sc administered daily up to day 6 measured on day 7 post last dose by cold plate test (reference value: 14.3 +/- 0.3 secs).
Experiment [37] deals with Rattus norvegicus. Nature of the experiment: Antihypersensitivity in oxaliplatin-induced Sprague-Dawley rat hyperalgesia model assessed as increase in weight tolerated on posterior paw at 3.42 mg/kg, sc administered daily up to day 13 measured on day 14 post last dose by analgesimeter relative to control.
Experiment [38] has as its system Rattus norvegicus. Nature of the experiment: Antihypersensitivity in oxaliplatin-induced Sprague-Dawley rat thermal hyperalgesia model assessed as paw withdrawal latency time at 3.42 mg/kg, sc administered daily up to day 6 measured on day 7 post last dose by plantar test (reference value: 9 +/- 1 secs).
In experiment [39] the test system is Rattus norvegicus. Nature of the experiment: Antiallodynic activity in oxaliplatin-induced Sprague-Dawley rat allodynia model assessed as increase in paw withdrawal latency time at 3.42 mg/kg, sc administered daily up to day 13 measured on day 14 post last dose by Von Frey test relative to control.
For experiment [40], the system named is Rattus norvegicus. Nature of the experiment: Antiallodynic activity in oxaliplatin-induced Sprague-Dawley rat allodynia model assessed as paw withdrawal latency time at 3.42 mg/kg, sc administered daily up to day 6 measured on day 7 post last dose by Von Frey test (reference value: 12.4 +/- 1.2 secs).

`Cc1ccccc1CSc1ccc(-c2ccccn2)nn1`: the Time is on record as 18.3 s in experiment [1], 22.5 s in experiment [3], 17 s in [4] and 14.1 s in experiment [5]. In addition, the Activity in experiment [2] amounted to 51.3%; in [6] it was 76.4%; in [7], 67.1%; in experiment [8], 75.9%.
With `c1ccc(-c2ccc(SCc3nc4ccccc4s3)nn2)nc1`, the Time was 15.8 s in experiment [9]; 16.3 s in [10]; 15.8 s in experiment [11]; 14.3 s in experiment [14]; 16.4 s in [15]. For the same molecule, the figures for the Activity in experiment [12] and in experiment [13] were 54.7 g and 72.5%, respectively.
Regarding `c1ccc(-c2ccc(SCc3ccc4ccccc4n3)nn2)nc1`, the Activity stood at 31.7% in experiment [16], 67.8% in [20], 33% in experiment [22] and 48.4 g in experiment [24]. Further, the Time stood at 13.7 s in experiment [17]; 11.6 s in experiment [18]; 14.5 s in experiment [19]; 15.6 s in experiment [21]; 13.5 s in [23].
Take `c1ccc(-c2ccc(SCc3ccc4ccccc4c3)nn2)nc1`: the Time in experiment [1] stood at 15.5 s; in experiment [18], 14.2 s; in [19], 16 s; in experiment [21], 16.5 s; in experiment [23], 17.6 s. Also, the Activity in [16] stood at 40.1%; in experiment [22] it was 53%; in [24], 51.9 g.
On to `c1ccc(-c2ccc(SCc3cccc4nonc34)nn2)nc1`, for which the Time stood at 19.4 s in [25]; 23.8 s in experiment [26]; 22 s in [28]; 15.2 s in experiment [29]; 18.7 s in [32]. The Activity in [27] was 58.6 g; in [30], 62.8 g; in [31] it was 62.8%.
As to `c1ccc(-c2ccc(SCc3cc4ccccc4s3)nn2)nc1`, the Time in experiment [33] was determined as 15.1 s; in [35], 17.5 s; in experiment [36], 17.8 s; in experiment [38], 12.8 s. Besides, the Activity in [34] came out at 55.3 g; in [37] it was 86.2%; in experiment [39], 64.3%.
Regarding `c1ccc(-c2ccc(SCc3cccc4cccnc34)nn2)nc1`, the Time in [1] came to 13.8 s; in experiment [40], 18.8 s; in experiment [18], 12.5 s; in experiment [19], 18 s; in [21], 18 s; in experiment [23] it was 17.6 s. In addition, the Activity worked out at 44.3% in experiment [16], 68.7% in experiment [22] and 51.3 g in experiment [24].
